{
  "source": "patent US20210154161A1",
  "about": "“MODIFIED-RELEASE BUCILLAMINE COMPOSITIONS, KITS, AND METHODS FOR TREATING CYSTINURIA, ARTHRITIS, GOUT, AND RELATED DISORDERS” (ALTIBIO, INC., priority 2017, published 2021)",
  "key": {"[1]": {"test": "Short- and long-term stability of bucillamine in Beagle dog plasma", "assay_type": "in vitro ADME", "description": "Stability Testing: Finally, short-term and long-term stability of bucillamine in Beagle dog plasma, pre-crashed plasma (plasma supernatant), and urine were assessed using two bucillamine concentrations (50 ng/mL or 500 ng/mL) under each of the following two conditions: (1) storage on the bench top for 4 hours and (2) frozen at −80° C. for up to one month. Samples were considered stable if their concentrations were within ±20% of nominal. These samples met acceptable criteria for stability and results are presented below, in Tables 5, 6, and 7, showing the % bucillamine remaining in Beagle dog plasma (Table 5), plasma supernatant (Table 6), and urine (Table 7)."}, "[2]": {"test": "Free bucillamine plasma concentration after oral or intraduodenal dosing regimens", "assay_type": "in vivo, male Beagle dogs", "settings": "for maximum plasma concentrations of free bucillamine (average): n=3 dogs", "description": "(§1) The objective of this study was to evaluate total and free plasma bucillamine, and urinary bucillamine, in male Beagle dogs following oral and intraduodenal administration of bucillamine, according to various dose regimens, to determine whether different regimens, simulating modified release in accordance with the present invention, would improve drug pharmacokinetics. Specifically, bucillamine formulations were administered to deliver 30 mg/kg per dog via single or multiple doses divided over a 12-hour period; and blood and urine samples then collected at different times post-dose.\n(§2) Bucillamine formulations were administered to provide 30 mg/kg per dog according to five different dosage regimens (Leg 1, Leg 2, Leg 3, Leg 4, and Leg 5), as set forth in the table below. Leg 2, Leg 3, and Leg 4 (also referred to as Q6H, Q3H, and Q2H, respectively) were designed to simulate modified-release formulations, in accordance with certain embodiments of the present invention. Following administration, blood and urine samples were collected at the time points, or over the time intervals, also as indicated below.\n(§3) Preparation of Dosing Formulations: Capsules for Legs 1-5 were prepared and filled on the day of dosing, as follows. For Legs 1, 2, and 5, bucillamine was dry mixed with avicel and mannitol to make a 40:30:30 mixture of bucillamine to avicel to mannitol, respectively; for study Legs 3 and 4, a 20:40:40 mixture of bucillamine to avicel to mannitol, respectively, was prepared. The dry mixes were custom filled with the appropriate amount of powder to deliver the specified doses to each dog based, on their respective body weights.\n(§4) Animal Dosing and Sample Collection: This non-clinical study followed established practices and standard operating procedures of Absorption Systems and Absorption Systems Inc., as well as the study protocol. Study groups each included three dogs. The dogs were housed one per cage. For Legs 1-4, the dogs were fasted for at least six hours prior to each administration of the formulation. For Legs 1-4, food was given approximately ten hours post initial dosing. Animals had free access to water throughout the study. For Leg 5, the dogs were fasted for at least sixteen hours prior to each administration of the formulation. For Leg 5, food was given approximately eight hours post initial dosing. Animals had free access to water throughout the study. Additionally, each dog received a 60 mL subcutaneous injection of saline (a 30 mL injection, into each two different sites) approximately 30 minutes prior to dosing, for hydration.\n(§5) Intraduodenal (ID) administration: Animals were anesthetized by a slow IV infusion of Propofol (6-10 mg/kg), or with an intramuscular injection of a cocktail containing ketamine (approximately 10-20 mg/kg), diazepam (3 mg/kg), and acepromazine (0.05 mg/kg) given IM about 5-10 minutes before intubation. Once animals were confirmed adequately anesthetized, they were intubated and maintained using isoflurane (approximately 1-5% in oxygen 1 to 4 L/min) as necessary until dosing was complete. Formulations were administered into the proximal duodenum via endoscopic guidance to verify the dosing site. The endoscope first was maneuvered into the pyloric sphincter with camera visualization of the proximal duodenum. Once there was confirmation that the endoscope was placed between the pylorus and proximal duodenum, the test article was delivered to the proximal duodenum followed by a 5 mL flush. Upon completion of the dosing, the animals were taken off the isoflurane and allowed to recover from anesthesia. Time points began upon completion of the entire dose procedure. Following each blood sampling time point, 15 mL of water was given to each dog via syringe. Approximately 30 minutes prior to the 0 hour blood collection, each dog received a subcutaneous injection of 60 mL of saline (a 30 mL injection into each of two different sites) for hydration. […]"}, "[3]": {"test": "Bucillamine urinary recovery after oral or intraduodenal dosing regimens", "assay_type": "in vivo, male Beagle dogs", "settings": "for % of the dose (unchanged drug) found in urine, on average: n=3 dogs", "description": "as §1, §2, §3, §4, §5"}, "[4]": {"test": "Example 3: cystine stone formation in cystinuria patients, about 1 week", "assay_type": "in vivo, human", "settings": "Days 2-8, enterically-coated bucillamine oral 100 mg x 8 or x 12 times/day", "description": "This Example describes a study to confirm the improved efficacy of reducing cystine stone formation in cystinuria patients who develop at least one stone per week using standard Thiola® dosing. Study Design: […] The patients are dosed as follows: Day 1: No treatment; an X-ray is taken of the kidney and bladder. Days 2-8: To simulate extended release, enterically-coated bucillamine is orally administered at either 100 mg x 8 times/day (i.e., every three hours) or 100 mg x 12 times/day (i.e., every two hours). A simple enteric coating is used that avoids release in the stomach. Also, 24 hour urine cystine capacity is measured, that is, all urine over a 24-hour period, starting from the time of the first dose, is collected and used to measure urinary cystine concentration. Day 8: X-ray examination of Day 1 is repeated."}, "[5]": {"settings": "Leg 1 (Q12H): PO, single 30 mg/kg dose"}, "[6]": {"settings": "Leg 2: PO 30 mg/kg as two 15 mg/kg doses at 0 and 6 h"}, "[7]": {"settings": "Leg 3 (Q3H): PO 30 mg/kg as four 7.5 mg/kg doses at 0, 3, 6, 9 h"}, "[8]": {"settings": "Leg 4: PO 30 mg/kg as six 5 mg/kg doses at 0, 2, 4, 6, 8, 10 h"}, "[9]": {"settings": "Leg 5: ID, single 30 mg/kg dose"}},
  "data": [
    {"smiles": "CC(C)(S)C(=O)N[C@@H](CS)C(=O)O", "note": "[bucillamine, N-(2-mercapto-2-methylpropionyl)-L-cysteine]", "values": [
      {"measurement": "% Bucillamine Remaining in Beagle Dog Plasma", "setting": "[1]; 50 ng/mL (low), -80 C freezer for 1 week", "result": 114, "unit": "%"},
      {"measurement": "% Bucillamine Remaining in Beagle Dog Plasma", "setting": "[1]; 50 ng/mL (low), -80 C freezer for 2 weeks", "result": 108, "unit": "%"},
      {"measurement": "% Bucillamine Remaining in Beagle Dog Plasma", "setting": "[1]; 50 ng/mL (low), -80 C freezer for 4 weeks", "result": 114, "unit": "%"},
      {"measurement": "% Bucillamine Remaining in Beagle Dog Plasma", "setting": "[1]; 50 ng/mL (low), bench top (RT) for 4 hours", "result": 110, "unit": "%"},
      {"measurement": "% Bucillamine Remaining in Beagle Dog Plasma", "setting": "[1]; 500 ng/mL (high), -80 C freezer for 1 week", "result": 96.4, "unit": "%"},
      {"measurement": "% Bucillamine Remaining in Beagle Dog Plasma", "setting": "[1]; 500 ng/mL (high), -80 C freezer for 2 weeks", "result": 97.3, "unit": "%"},
      {"measurement": "% Bucillamine Remaining in Beagle Dog Plasma", "setting": "[1]; 500 ng/mL (high), -80 C freezer for 4 weeks", "result": 107, "unit": "%"},
      {"measurement": "% Bucillamine Remaining in Beagle Dog Plasma", "setting": "[1]; 500 ng/mL (high), bench top (RT) for 4 hours", "result": 96.9, "unit": "%"},
      {"measurement": "time at which maximum plasma concentrations of free bucillamine were observed", "setting": "[2]; [5]", "result": 2, "unit": "hours post dosing"},
      {"measurement": "maximum plasma concentrations of free bucillamine (average)", "setting": "[2]; [5]", "result": "2437 ± 728", "unit": "ng/mL"},
      {"measurement": "maximum plasma concentrations of free bucillamine (average)", "setting": "[2]; [6]", "result": "3957 ± 1226", "unit": "ng/mL"},
      {"measurement": "maximum plasma concentrations of free bucillamine (average)", "setting": "[2]; [7]", "result": "4327 ± 1127", "unit": "ng/mL"},
      {"measurement": "maximum plasma concentrations of free bucillamine (average)", "setting": "[2]; [8]", "result": "1820 ± 471", "unit": "ng/mL"},
      {"measurement": "maximum plasma concentrations of free bucillamine (average)", "setting": "[2]; [9]", "result": "1187 ± 656", "unit": "ng/mL"},
      {"measurement": "% of the dose (unchanged drug) found in urine, on average", "setting": "[3]; Leg 1: PO, single 30 mg/kg dose", "result": "57.3±25.8", "unit": "%"},
      {"measurement": "% of the dose (unchanged drug) found in urine, on average", "setting": "[3]; [6]", "result": "54.5±6.63", "unit": "%"},
      {"measurement": "% of the dose (unchanged drug) found in urine, on average", "setting": "[3]; [7]", "result": "25.8±14.0", "unit": "%"},
      {"measurement": "% of the dose (unchanged drug) found in urine, on average", "setting": "[3]; [8]", "result": "16.1±5.65", "unit": "%"},
      {"measurement": "% of the dose (unchanged drug) found in urine, on average", "setting": "[3]; [9]", "result": "20.2±7.51", "unit": "%"},
      {"measurement": "share of the drug recovered in urine excreted within the first 4 hours", "setting": "[3]; Q12H schedule, PO single 30 mg/kg dose, FIG. 22, n=2 dogs", "result": 80, "unit": "%"},
      {"measurement": "additional cystine stones on X-ray of Day 8 compared to Day 1", "setting": "[4]", "result": "no additional stones"}
    ]}
  ]
}
